{
  "source": "paper PMC11304236",
  "about": "“A Novel Drug Candidate for Sepsis Targeting Heparanase by Inhibiting Cytokine Storm” (Advanced Science, 2024)",
  "key": {"LPS-induced septic mice": {"tested_on": "LPS-induced septic mice", "test": "LPS-induced sepsis mouse model, survival", "assay_type": "in vivo", "settings": "40 mg kg−1 s.c. 30 min after LPS 40 mg kg−1 i.p.; 80 h or longer observation; LPS group 0%", "protocol": "For LPS‐induced sepsis model experiments, 25 male C57BL/6J mice, 6–8 weeks old, weighing 20–25 g, were randomly divided into five groups (n = 5 in each group), and survival was examined. The abdominal cavity was injected with 40 mg kg^−1 LPS to induce sepsis. 30 min later, mice in group 1 were injected subcutaneously with 0.9% NaCl, mice in groups 2–4 were injected subcutaneously with CV122 (20 mg kg^−1), CV122 (30 mg kg^−1), and CV122 (40 mg kg^−1), respectively, and mice in group 5 were injected subcutaneously with Suramin (40 mg kg^−1). The status of the mice was observed and recorded every day."}, "HUVECs": {"tested_on": "HUVECs", "test": "Cell survival assay (CCK-8) in HUVECs", "assay_type": "cell-based, human"}, "TNF-α, IL-6, IL-1β": {"tested_on": "TNF-α, IL-6, IL-1β", "test": "Cytokine ELISA in serum and organs of LPS-induced septic mice", "assay_type": "in vivo, mouse", "settings": "40 mg kg−1, 30 min after LPS 20 mg kg−1 i.p.; 3 h after LPS; vs LPS group", "protocol": "For LPS‐induced sepsis model experiments, twenty male C57BL/6J mice were randomly divided into four groups (n = 5 in each group). Mice in group 1 were injected with 0.9% NaCl, while mice in groups 2–4 were injected intraperitoneally with LPS (20 mg kg^−1). After 30 min, mice in group 3 were injected with 40 mg kg^−1 CV122 and mice in group 4 were injected with 40 mg kg^−1 Suramin. After 3 h, blood was taken and the lungs, liver, spleen, kidney heart, and brain were taken. For CLP experiments, the mice were euthanized 24 h after the establishment of the sepsis model. Blood samples were collected from the eyeballs of mice, the lungs were taken. These organs were ground at 0.1 g mL^−1 in PBS, centrifuged and the supernatant collected. Serum and organ tissue supernatants were used to detect cytokine levels using the mouse TNF‐α, IL‐6, IL‐1β ELISA MAXTM Deluxe Set."}},
  "data": [
    {"smiles": "Cc1ccc(C(=O)Nc2ccc(S(=O)(=O)O)c3cc(S(=O)(=O)O)cc(S(=O)(=O)O)c23)cc1NC(=O)c1cccc(NC(=O)Nc2cccc(C(=O)Nc3cc(C(=O)Nc4ccc(S(=O)(=O)O)c5cc(S(=O)(=O)O)cc(S(=O)(=O)O)c45)ccc3C)c2)c1", "note": "[Suramin, reference compound]", "values": [
      {"measurement": "survival rate", "setting": "LPS-induced septic mice", "result": 60, "unit": "%"},
      {"measurement": "effect on survival of HUVECs", "setting": "HUVECs; 100 µM, *p < 0.05", "result": "significant inhibitory effect"},
      {"measurement": "effect on survival of HUVECs", "setting": "HUVECs; 200 µM, **p < 0.01", "result": "significant inhibitory effect"},
      {"measurement": "TNF-α, IL-6 and IL-1β levels in serum and lungs", "setting": "TNF-α, IL-6, IL-1β", "result": "suppress the cytokine release but to a lesser extent"}
    ]}
  ]
}
